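A five-concentration, 48-hour dose response in 96-well plates underlies each endpoint, interpolated linearly between surrounding concentrations. GI50: concentration for 50% inhibition of growth.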 Activity calls are given as the source filed them. Cut-off read from the data, not from the text of the source: active = GI50 up to about 1.1 µM and inactive = higher.
Experiments:
Assay in all cases: NCI tumour cell line growth inhibition, 48 h
[1] = tested on: UACC-62
[2] = tested on: COLO 205
[3] = tested on: NCI/ADR-RES
[4] = tested on: A498
[5] = tested on: DU-145
[6] = tested on: Malme-3M
[7] = tested on: HCT-15
[8] = tested on: HL-60
[9] = tested on: SNB-19
[10] = tested on: SK-MEL-2
[11] = tested on: MCF7
[12] = tested on: LOX IMVI
[13] = tested on: SF-539
[14] = tested on: NCI-H460
[15] = tested on: MOLT-4
[16] = tested on: OVCAR-3
[17] = tested on: M14
[18] = tested on: 786-0
[19] = tested on: HT-29
[20] = tested on: KM12
[21] = tested on: MDA-MB-435
[22] = tested on: MDA-N
[23] = tested on: OVCAR-8
[24] = tested on: SK-MEL-28
[25] = tested on: NCI-H522
[26] = tested on: HOP-62
[27] = tested on: SN12C
[28] = tested on: SK-OV-3
[29] = tested on: NCI-H23
[30] = tested on: PC-3
[31] = tested on: HCC 2998
[32] = tested on: SF-295
[33] = tested on: UACC-257
[34] = tested on: CAKI-1
[35] = tested on: OVCAR-5
[36] = tested on: ACHN
[37] = tested on: T47D
[38] = tested on: OVCAR-4
[39] = tested on: TK-10
[40] = tested on: HCT-116
[41] = tested on: SK-MEL-5
[42] = tested on: SW-620
[43] = tested on: A549
[44] = tested on: SR
[45] = tested on: RXF 393
[46] = tested on: IGROV-1
[47] = tested on: SF-268
[48] = tested on: CCRF-CEM
[49] = tested on: MDA-MB-231
[50] = tested on: EKVX
[51] = tested on: Hs-578T
[52] = tested on: K562
[53] = tested on: NCI-H226
[54] = tested on: UO-31
[55] = tested on: SNB-75
[56] = tested on: U-251
[57] = tested on: RPMI-8226
[58] = tested on: HOP-92

Measured: GI50

O=C(O)[C@@H]1CCS(=O)(=O)N1
> 100 µM: [7]
inactive: [1] > 100 µM | [2] > 100 µM | [3] > 100 µM | [4] > 100 µM | [5] > 100 µM | [6] > 100 µM | [8] > 100 µM | [9] > 100 µM | [10] > 100 µM | [11] > 100 µM | [12] > 100 µM | [13] > 100 µM | [14] > 100 µM | [15] > 100 µM | [16] > 100 µM | [17] > 100 µM | [18] > 100 µM | [19] > 100 µM | [20] > 100 µM | [21] > 100 µM | [22] > 100 µM | [23] > 100 µM | [24] > 100 µM | [25] > 100 µM | [26] > 100 µM | [27] > 100 µM | [28] > 100 µM | [29] > 100 µM | [30] > 100 µM | [31] > 100 µM | [32] > 100 µM | [33] > 100 µM | [34] > 100 µM | [35] > 100 µM | [36] > 100 µM | [37] > 100 µM | [38] > 100 µM | [39] > 100 µM | [40] > 100 µM | [41] > 100 µM | [42] > 100 µM | [43] > 100 µM | [44] > 100 µM | [45] > 100 µM | [46] > 100 µM | [47] > 100 µM | [48] > 100 µM | [49] > 100 µM | [50] > 100 µM

COc1ccc(C2C(=O)c3c(OC)cc(OC)cc3OC2c2cccnc2)cc1 (stereo not drawn)
> 100 µM: [7]
inactive: [1] 82.2 µM | [51] > 100 µM | [2] 70.3 µM | [3] > 100 µM | [4] > 100 µM | [5] > 100 µM | [6] 67.9 µM | [52] 59.6 µM | [9] > 100 µM | [10] > 100 µM | [11] > 100 µM | [12] 61.2 µM | [53] 43.8 µM | [13] > 100 µM | [14] 92.7 µM | [15] 46 µM | [16] > 100 µM | [17] > 100 µM | [54] 32.2 µM | [18] > 100 µM | [19] 71.3 µM | [20] > 100 µM | [21] 44.5 µM | [22] 46.7 µM | [23] > 100 µM | [24] > 100 µM | [25] 35.8 µM | [55] 27.4 µM | [26] > 100 µM | [27] > 100 µM | [28] > 100 µM | [29] > 100 µM | [30] > 100 µM | [31] > 100 µM | [32] 53.5 µM | [33] > 100 µM | [34] > 100 µM | [35] > 100 µM | [36] > 100 µM | [37] > 100 µM | [38] 44.2 µM | [39] > 100 µM | [40] > 100 µM | [41] > 100 µM | [42] > 100 µM | [43] > 100 µM | [44] 37.6 µM | [45] > 100 µM | [46] > 100 µM | [47] > 100 µM | [48] 66.2 µM | [49] > 100 µM | [50] > 100 µM

O=C(c1ccccc1)N1C(=O)N(c2ccccc2)C(=N/c2ccccc2)/C1=N\c1ccccc1
inactive: [1] 4.18 µM | [51] 20.3 µM | [56] > 100 µM | [2] 70.5 µM | [3] > 100 µM | [4] > 100 µM | [5] > 100 µM | [6] 69 µM | [57] > 100 µM | [8] > 100 µM | [58] 64.1 µM | [52] 7.36 µM | [9] > 100 µM | [10] 29.9 µM | [12] 9.25 µM | [53] 18 µM | [13] > 100 µM | [14] 15 µM | [15] 19.5 µM | [54] > 100 µM | [18] > 100 µM | [19] 33.7 µM | [20] 13.5 µM | [21] > 100 µM | [22] > 100 µM | [23] > 100 µM | [24] > 100 µM | [25] 11 µM | [55] > 100 µM | [26] 52.4 µM | [27] > 100 µM | [28] > 100 µM | [29] > 100 µM | [30] > 100 µM | [31] 28.8 µM | [32] > 100 µM | [33] 37.8 µM | [34] 48.1 µM | [35] 99.1 µM | [36] 80.7 µM | [37] > 100 µM | [38] 23.4 µM | [39] > 100 µM | [40] 47.9 µM | [41] > 100 µM | [42] > 100 µM | [43] 42.2 µM | [44] 17.8 µM | [45] 99.3 µM | [46] > 100 µM | [47] > 100 µM | [48] 50.7 µM | [49] > 100 µM | [50] > 100 µM
64 µM: [7]

Cc1c(NC(=O)CCCl)c(=O)oc2c(C)c3occc(=O)c3cc12
inactive: [51] 35.5 µM | [56] 67.6 µM | [2] > 100 µM | [3] > 100 µM | [4] 19.7 µM | [5] > 100 µM | [6] 23.5 µM | [57] 81.7 µM | [8] 57.7 µM | [58] 28.9 µM | [52] 66.4 µM | [9] 75.5 µM | [11] 67.5 µM | [14] 51.2 µM | [15] 76.9 µM | [17] 50.8 µM | [54] 36.1 µM | [18] > 100 µM | [19] > 100 µM | [20] > 100 µM | [22] 47.9 µM | [23] > 100 µM | [24] 53 µM | [55] 42.2 µM | [26] > 100 µM | [28] 86.9 µM | [29] 94.4 µM | [31] > 100 µM | [32] 33 µM | [33] 60.1 µM | [34] 42.1 µM | [35] > 100 µM | [36] 45.5 µM | [37] 77.4 µM | [38] > 100 µM | [39] 49.2 µM | [40] 92.7 µM | [41] 36.8 µM | [42] 87.7 µM | [43] > 100 µM | [44] 80.4 µM | [45] 33.5 µM | [46] 97.5 µM | [47] > 100 µM | [48] 30.9 µM | [50] > 100 µM
62.4 µM: [7]

O=c1[nH]c(=O)n(CCOc2ccc(Cl)cc2)cc1Nc1ccccc1
> 100 µM: [7]
inactive: [1] > 100 µM | [51] 29.2 µM | [56] > 100 µM | [2] > 100 µM | [3] > 100 µM | [4] > 100 µM | [5] > 100 µM | [57] > 100 µM | [8] > 100 µM | [58] > 100 µM | [52] > 100 µM | [9] > 100 µM | [11] > 100 µM | [12] > 100 µM | [14] > 100 µM | [15] > 100 µM | [16] 85.3 µM | [17] > 100 µM | [54] 58.5 µM | [18] 44.3 µM | [19] > 100 µM | [20] > 100 µM | [21] > 100 µM | [22] > 100 µM | [24] > 100 µM | [26] > 100 µM | [27] > 100 µM | [29] > 100 µM | [30] > 100 µM | [31] > 100 µM | [32] 12.4 µM | [33] > 100 µM | [34] > 100 µM | [35] > 100 µM | [36] > 100 µM | [38] 49 µM | [40] > 100 µM | [41] > 100 µM | [42] > 100 µM | [43] > 100 µM | [44] > 100 µM | [45] > 100 µM | [46] > 100 µM | [47] 39.9 µM | [48] > 100 µM | [50] 71 µM

From ChEMBL document CHEMBL1201862, “PubChem BioAssay data set” (2004)
